As a reminder, the EC50 is the concentration that produces a half-maximal response.

SMILES strings stand for the structures.

Emax, EC50 and maximum modulation data for 28 compounds are collected here from patent US8716284B2, “Adamantyl diamide derivatives and uses of same” (H. Lundbeck A/S, priority 2008, dated 2014).

In the assay the target is T1, rat metabotropic glutamate receptor 5 (mGluR5) (Rattus norvegicus, UniProt P31424).
T1 construct: expressed in transfected cells; host or cells: HEK 293
T1 sequence (P31424 21-1171 isoform P31424-2 limits assumed): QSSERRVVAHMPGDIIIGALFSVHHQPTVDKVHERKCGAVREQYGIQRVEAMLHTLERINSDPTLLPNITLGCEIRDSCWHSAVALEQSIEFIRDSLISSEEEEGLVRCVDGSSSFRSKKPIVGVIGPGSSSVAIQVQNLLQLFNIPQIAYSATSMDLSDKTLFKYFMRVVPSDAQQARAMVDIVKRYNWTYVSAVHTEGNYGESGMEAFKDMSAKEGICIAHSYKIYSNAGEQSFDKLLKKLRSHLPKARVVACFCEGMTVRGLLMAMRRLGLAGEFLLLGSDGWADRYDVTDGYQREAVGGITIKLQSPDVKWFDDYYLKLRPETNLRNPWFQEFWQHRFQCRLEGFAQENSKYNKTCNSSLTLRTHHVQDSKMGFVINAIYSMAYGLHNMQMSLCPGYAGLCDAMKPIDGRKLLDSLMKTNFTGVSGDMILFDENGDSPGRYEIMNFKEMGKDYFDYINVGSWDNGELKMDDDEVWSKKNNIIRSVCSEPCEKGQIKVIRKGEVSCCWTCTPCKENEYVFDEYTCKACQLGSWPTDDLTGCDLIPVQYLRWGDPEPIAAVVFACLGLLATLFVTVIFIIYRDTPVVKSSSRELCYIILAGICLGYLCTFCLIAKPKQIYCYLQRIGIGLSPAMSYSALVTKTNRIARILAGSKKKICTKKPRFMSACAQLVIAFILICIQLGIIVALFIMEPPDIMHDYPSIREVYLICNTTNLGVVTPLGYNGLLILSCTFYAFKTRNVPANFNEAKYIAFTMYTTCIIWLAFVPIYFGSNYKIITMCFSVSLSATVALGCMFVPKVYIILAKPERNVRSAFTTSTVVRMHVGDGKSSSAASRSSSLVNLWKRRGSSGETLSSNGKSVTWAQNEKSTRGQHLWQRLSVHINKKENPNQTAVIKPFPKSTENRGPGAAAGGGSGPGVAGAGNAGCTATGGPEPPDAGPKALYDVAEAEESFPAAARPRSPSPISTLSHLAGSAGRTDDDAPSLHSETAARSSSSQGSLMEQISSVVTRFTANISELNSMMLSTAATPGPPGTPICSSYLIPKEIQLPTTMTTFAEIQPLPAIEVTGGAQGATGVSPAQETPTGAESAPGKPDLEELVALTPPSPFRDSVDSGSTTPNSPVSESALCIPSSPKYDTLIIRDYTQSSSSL
Kind of assay: Calcium mobilization assay (FLIPR) for negative or positive allosteric activity, HEK 293 cells. It counts as cell-based. The conditions noted are these: for Emax: HEK293, negative allosteric modulation, inhibition of EC80 glutamate response, read-out: FLIPR maximum inhibition; for EC50 / maximum modulation: positive modulation, increase in EC20 glutamate response. The method, then:
The cDNA for rat metabotropic glutamate receptor 5 (mGluR5) was a generous gift from S. Nakanishi (Kyoto University, Kyoto, Japan). The mGluR5 was stably expressed in a HEK 293 cell line and grown in Dulbecco's Modified Eagle Medium (DMEM) (Invitrogen, Carlsbad, Calif.) with supplements (10% bovine calf serum, 4 mM glutamine, 100 units/mL penicillin, 100 μg/mL streptomycin and 0.75 mM G1418) at 37° C., 5% CO2. Twenty-four hours prior to assay, cells were seeded into 384-well black wall microtiter plates coated with poly-D-lysine. Just prior to assay, media was aspirated and cells dye-loaded (25 μL/well) with 3 μM Fluo-4/0.01% pluronic acid in assay buffer (Hank's Balanced Saline Solution (HBSS)): 150 mM NaCl, 5 mM KCl, 1 mM CaCl2, 1 mM MgCl2, plus 20 mM N-2-Hydroxyethylpiperazine-N′-2-ethanesulfonic acid (HEPES), pH 7.4, 0.1% bovine serum albumin (BSA) and 2.5 mM probenicid) for 1 hour in 5% CO2 at 37° C. After excess dye was discarded, cells were washed in assay buffer and layered with a final volume equal to 30 μL/well. Basal fluorescence is monitored in a fluorometric imaging plate reader (FLIPR) (Molecular Devices, Sunnyvale, Calif.) with an excitation wavelength of 488 nm and an emission range of 500 to 560 nm. Laser excitation energy was adjusted so that basal fluorescence readings were approximately 10,000 relative fluorescent units. Cells were stimulated with an EC20 or an EC80 concentration of glutamate in the presence of a compound to be tested, both diluted in assay buffer, and relative fluorescent units were measured at defined intervals (exposure=0.6 sec) over a 3 min period at room temperature. Basal readings derived from negative controls were subtracted from all samples. Maximum change in fluorescence was calculated for each well. Concentration-response curves derived from the maximum change in fluorescence were analyzed by nonlinear regression (Hill equation). A negative modulator can be identified from these concentration-response curves if a compound produces a concentration dependent inhibition of the EC80 glutamate response. […] Examples 11-163 also were tested in the above assay.
A positive modulator can be identified from these concentration-response curves if a compound produces a concentration dependent increase in the EC20 glutamate response.
A general note: A change in cytosolic calcium serves as a functional read-out for many receptors and channels.

For `Cc1cncc(C(=O)NC23CC4CC(CC(NC(=O)c5cccc(OC(F)F)c5)(C4)C2)C3)n1` [Example 162, 6-Methyl-pyrazine-2-carboxylic acid [3-(3-difluoro-methoxy-benzoylamino)-adamantan-1-yl]-amide], the Emax was in the range of 70 to 99%.
Take `Cc1cccc(C(=O)NC23CC4CC(C2)CC(NC(=O)c2cccc(-n5ccnc5)n2)(C4)C3)n1` [Example 254, 6-Imidazol-1-yl-pyridine-2-carboxylic acid {3-[(6-methyl-pyridine-2-carbonyl)-amino]-adamantan-1-yl}-amide]: the Emax lay within 63 to 99%.
The same measure, in the same setting: to `Cc1cccc(C(=O)NC23CC4CC(C2)CC(NC(=O)c2cccc(NCCO)n2)(C4)C3)n1` [Example 208, 6-(2-Hydroxy-ethylamino)-pyridine-2-carboxylic acid {3-[(6-methyl-pyridine-2-carbonyl)-amino]-adamantan-1-yl}-amide] belongs 63 to 99%.
Still for that read-out and setting: to `Cc1nc(C(=O)NC23CC4CC(CC(NC(=O)c5ccccn5)(C4)C2)C3)cs1` [Example 110, Pyridine-2-carboxylic acid {3-[(2-methyl-thiazole-4-carbonyl)-amino]-adamantan-1-yl)-amide] belongs 70 to 99%; to `Cc1cccc(C(=O)NC23CC4CC(C2)CC(NC(=O)c2cncc(C)n2)(C4)C3)n1` [Example 21, 6-Methyl-pyrazine-2-carboxylic acid {3-[(6-methyl-pyridine-2-carbonyl)-amino]-adamantan-1-yl}-amide], 63 to 99%; to `Cn1nc(C(=O)NC23CC4CC(CC(NC(=O)c5ccccn5)(C4)C2)C3)cc1-c1cccs1` [Example 8, Pyridine-2-carboxylic acid {3-[(1-methyl-5-thiophen-2-yl-1H-pyrazole-3-carbonyl)-amino]-adamantan-1-yl}-amide], 90 to 99%.
On the same count and under the same terms, to `Cn1ccc(C(=O)NC23CC4CC(CC(NC(=O)c5cccc(F)c5)(C4)C2)C3)n1` [Example 97, 1-Methyl-1H-pyrazole-3-carboxylic acid [3-(3-fluoro-benzoylamino)-adamantan-1-yl]-amide] belongs 63 to 99%; to `COC(=O)c1cccc(C(=O)NC23CC4CC(CC(NC(=O)c5cccc(C)n5)(C4)C2)C3)n1` [Example 139, 6-{3-[(6-Methyl-pyridine-2-carbonyl)-amino]-adamantan-1-ylcarbamoyl}-pyridine-2-carboxylic acid methyl ester], 70 to 99%; to `Cc1cccc(C(=O)NC23CC4CC(C2)CC(NC(=O)c2cn5ccccc5n2)(C4)C3)n1` [Example 52, Imidazo[1,2-a]pyridine-2-carboxylic acid {3-[(6-methyl-pyridine-2-carbonyl)-amino]-adamantan-1-yl}-amide], 63 to 99%.
With `CC(=O)NCCNc1cccc(C(=O)NC23CC4CC(CC(NC(=O)c5ccccn5)(C4)C2)C3)n1` [Example 223, 6-(2-Acetylamino-ethylamino)-pyridine-2-carboxylic acid {3-[(pyridine-2-carbonyl)-amino]-adamantan-1-yl}-amide], the Emax is 63 to 99%.
Still for that read-out and setting: the result for `O=C(NC12CC3CC(C1)CC(NC(=O)c1cccs1)(C3)C2)c1ccccn1` [Example 75, Pyridine-2-carboxylic acid {3-[(thiophene-2-carbonyl)-amino]-adamantan-1-yl}-amide] reads 63 to 99%; that for `Cc1cncc(C(=O)NC23CC4CC(C2)CC(NC(=O)c2cccc(C(F)(F)F)c2F)(C4)C3)n1` [Example 150, 6-Methyl-pyrazine-2-carboxylic acid [3-(2-fluoro-3-trifluoromethyl-benzoylamino)-adamantan-1-yl]-amide], 70 to 99%.
For the compound `Cc1cncc(C(=O)NC23CC4CC(CC(NC(=O)c5cc(-c6ccc(F)cc6)ncn5)(C4)C2)C3)n1` [Example 256, 6-(4-Fluoro-phenyl)-pyimidine-4-carboxylic acid {3-[(6-methyl-pyrazine-2-carbonyl)-aminpo]-adamantan-1-yl}-amide], the EC50 came out at 300 nM and the maximum modulation stood at 170%.
As for `Cc1cncc(C(=O)NC23CC4CC(CC(NC(=O)c5cc(-c6ccccc6)ncn5)(C4)C2)C3)n1` [Example 257, 6-Phenyl-pyrimidine-4-carboxylic acid {3-[(6-methyl-pyrazine-2-carbonyl)-amino]-adamantan-1-yl}-amide], the EC50 was 830 nM and the maximum modulation was found to be 120%.
For `Cc1cccc(C(=O)NC23CC4CC(C2)CC(NC(=O)c2nccc(C)n2)(C4)C3)n1` [Example 141, 4-Methyl-pyrimidine-2-carboxylic acid {3-[(6-methyl-pyridine-2-carbonyl)-amino]-adamantan-1-yl}-amide], the Emax fell in the range of 70 to 99%.
With `Cc1cccc(C(=O)NC23CC4CC(C2)CC(NC(=O)c2nn(C)c5ccccc25)(C4)C3)n1` [Example 37, 1-Methyl-1H-indazole-3-carboxylic acid {3-[(6-methyl-pyridine-2-carbonyl)-amino]-adamantan-1-yl}-amide], the Emax was in the range of 63 to 99%.
On to `COCCNc1cccc(C(=O)NC23CC4CC(CC(NC(=O)c5cccc(C)n5)(C4)C2)C3)n1` [Example 235], for which the Emax was 63 to 99%.
Same read-out and setting: the result for `CCn1ccc(C(=O)NC23CC4CC(CC(NC(=O)c5cccc(C)n5)(C4)C2)C3)n1` [Example 42, 6-Methyl-pyridine-2-carboxylic acid {3-[(1-ethyl-1H-pyrazole-3-carbonyl)-amino]-adamantan-1-yl}-amide] reads 63 to 99%; that for `Cc1cccc(C(=O)NC23CC4CC(C2)CC(NC(=O)c2ccnc(C(F)(F)F)n2)(C4)C3)n1` [Example 140, 2-Trifluoromethyl-pyrimidine-4-carboxylic acid {3-[(6-methyl-pyridine-2-carbonyl)-amino]-adamantan-1-yl}-amide], 70 to 99%.
With `CN(C)CCCN(C)c1cccc(C(=O)NC23CC4CC(CC(NC(=O)c5cccc(F)c5)(C4)C2)C3)n1` [Example 243, 6-[(3-Dimethylamino-propyl)-methyl-amino]-pyridine-2-carboxylic acid [3-(3-fluoro-benzoylamino)-adamantan-1-yl]-amide], the Emax is 63 to 99%.
Take `Cc1cccc(C(=O)NC23CC4CC(C2)CC(NC(=O)c2cn5c(C)cccc5n2)(C4)C3)n1` [Example 55, 5-Methyl-imidazo[1,2-a]pyridine-2-carboxylic acid {3-[(6-methyl-pyridine-2-carbonyl)-amino]-adamantan-1-yl}-amide]: the Emax was 63 to 99%.
As for `Cc1cccc(C(=O)NC23CC4CC(C2)CC(NC(=O)c2cccc(N5CCC(O)CC5)n2)(C4)C3)n1` [Example 206, 4-Hydroxy-3,4,5,6-tetrahydro-2H-[1,2′]bipyridinyl-6′-carboxylic acid{3-[(6-methyl-pyridine-2-carbonyl)-amino]-adamantan-1-yl}-amide], the Emax was in the range of 63 to 99%.
In the case of `Cc1cccc(C(=O)NC23CC4CC(CC(NC(=O)c5cccc(N(C)C)c5)(C4)C2)C3)n1` [Example 114, 6-Methyl-pyridine-2-carboxylic acid [3-(3-dimethyl-amino-benzoylamino)-adamantan-1-yl]-amide], the Emax lay in the range of 70 to 99%.
For the compound `O=C(NC12CC3CC(C1)CC(NC(=O)C1CCCCC1)(C3)C2)c1ccccn1` [Example 84, Pyridine-2-carboxylic acid [3-(cyclohexanecarbonyl-amino)-adamantan-1-yl]-amide], the Emax lay within 63 to 99%.
Take `Cc1cncc(C(=O)NC23CC4CC(C2)CC(NC(=O)c2nccc(C(F)(F)F)n2)(C4)C3)n1` [Example 181, 4-Trifluoromethyl-pyrimidine-2-carboxylic acid {3-[(6-methyl-pyrazine-2-carbonyl)-amino]-adamantan-1-yl}-amide]: the Emax lay within 63 to 99%.
As to `NC(=O)CCNc1cccc(C(=O)NC23CC4CC(CC(NC(=O)c5cccc(F)c5)(C4)C2)C3)n1` [Example 252, 6-(2-Carbamoyl-ethylamino)-pyridine-2-carboxylic acid [3-(3-fluoro-benzoylamino)-adamantan-1-yl]-amide], the Emax fell in the range of 63 to 99%.
For `O=C(NC12CC3CC(C1)CC(NC(=O)C1CCCC1)(C3)C2)c1ccccn1` [Example 85, Pyridine-2-carboxylic acid [3-(cyclopentanecarbonyl-amino)-adamantan-1-yl]-amide], the Emax is 63 to 99%.
The same measure, in the same setting: the result for `Cc1cncc(C(=O)NC23CC4CC(CC(NC(=O)c5ccc(F)cc5)(C4)C2)C3)n1` [Example 177, 6-Methyl-pyrazine-2-carboxylic acid [3-(4-fluoro-benzoylamino)-adamantan-1-yl]-amide] reads 63 to 99%.
